This is an account of results in patent US10399940B2, “Substituted pyrrolidines and methods of use” (AbbVie S.à.r.l., priority 2016, dated 2019).

The experiment has as its target T1, F508delCFTR (Homo sapiens, UniProt P13569, DEL508-508).
T1 construct: expressed in transfected cells; host or cells: CFBE41o- (human lung derived epithelial cell line), doxycycline-inducible expression
The experiment can be described thus: Cell Surface Expression-Horse Radish Peroxidase (CSE-HRP) assay. It is filed as cell-based. The conditions noted are these: CFBE41o-F508delCFTR-HRP cells; for Maximum % activity (with co-corrector): with co-corrector (2 μM); for Maximum % activity (with co-corrector) / Maximum % activity (without co-corrector): normalized to on-plate positive control, highest concentration 20 μM. The method in brief:
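Surface F508delCFTR-HRP was read by luminol luminescence after 18–24 h compound exposure at 33 °C, without or with 2 μM co-corrector. Doses were eight 3-fold steps from 20 μM, in doxycycline-induced (0.5 μg/mL, 72 h) CFBE41o- cells. % activity was scaled to the on-plate 2 μM positive control minus DMSO; EC50 came from a variable-slope sigmoid fit.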

Where [1] appears, read: test compound without co-corrector, 18-24 hours at 33° C., read-out: EC50 (without co-corrector).
The mark [2] stands for this setting: with co-corrector (2 μM of 3-[(2R,4R)-4-({[1-(2,2-difluoro-1,3-benzodioxol-5-yl)cyclopropyl]carbonyl}amino)-7-methoxy-3,4-dihydro-2H-chromen-2-yl]benzoic acid), read-out: EC50 (with co-corrector).

Read-outs that look alike come from different tables or passages of the source.

T1 sequence (P13569 with tags, fused parts or gaps DEL508-508): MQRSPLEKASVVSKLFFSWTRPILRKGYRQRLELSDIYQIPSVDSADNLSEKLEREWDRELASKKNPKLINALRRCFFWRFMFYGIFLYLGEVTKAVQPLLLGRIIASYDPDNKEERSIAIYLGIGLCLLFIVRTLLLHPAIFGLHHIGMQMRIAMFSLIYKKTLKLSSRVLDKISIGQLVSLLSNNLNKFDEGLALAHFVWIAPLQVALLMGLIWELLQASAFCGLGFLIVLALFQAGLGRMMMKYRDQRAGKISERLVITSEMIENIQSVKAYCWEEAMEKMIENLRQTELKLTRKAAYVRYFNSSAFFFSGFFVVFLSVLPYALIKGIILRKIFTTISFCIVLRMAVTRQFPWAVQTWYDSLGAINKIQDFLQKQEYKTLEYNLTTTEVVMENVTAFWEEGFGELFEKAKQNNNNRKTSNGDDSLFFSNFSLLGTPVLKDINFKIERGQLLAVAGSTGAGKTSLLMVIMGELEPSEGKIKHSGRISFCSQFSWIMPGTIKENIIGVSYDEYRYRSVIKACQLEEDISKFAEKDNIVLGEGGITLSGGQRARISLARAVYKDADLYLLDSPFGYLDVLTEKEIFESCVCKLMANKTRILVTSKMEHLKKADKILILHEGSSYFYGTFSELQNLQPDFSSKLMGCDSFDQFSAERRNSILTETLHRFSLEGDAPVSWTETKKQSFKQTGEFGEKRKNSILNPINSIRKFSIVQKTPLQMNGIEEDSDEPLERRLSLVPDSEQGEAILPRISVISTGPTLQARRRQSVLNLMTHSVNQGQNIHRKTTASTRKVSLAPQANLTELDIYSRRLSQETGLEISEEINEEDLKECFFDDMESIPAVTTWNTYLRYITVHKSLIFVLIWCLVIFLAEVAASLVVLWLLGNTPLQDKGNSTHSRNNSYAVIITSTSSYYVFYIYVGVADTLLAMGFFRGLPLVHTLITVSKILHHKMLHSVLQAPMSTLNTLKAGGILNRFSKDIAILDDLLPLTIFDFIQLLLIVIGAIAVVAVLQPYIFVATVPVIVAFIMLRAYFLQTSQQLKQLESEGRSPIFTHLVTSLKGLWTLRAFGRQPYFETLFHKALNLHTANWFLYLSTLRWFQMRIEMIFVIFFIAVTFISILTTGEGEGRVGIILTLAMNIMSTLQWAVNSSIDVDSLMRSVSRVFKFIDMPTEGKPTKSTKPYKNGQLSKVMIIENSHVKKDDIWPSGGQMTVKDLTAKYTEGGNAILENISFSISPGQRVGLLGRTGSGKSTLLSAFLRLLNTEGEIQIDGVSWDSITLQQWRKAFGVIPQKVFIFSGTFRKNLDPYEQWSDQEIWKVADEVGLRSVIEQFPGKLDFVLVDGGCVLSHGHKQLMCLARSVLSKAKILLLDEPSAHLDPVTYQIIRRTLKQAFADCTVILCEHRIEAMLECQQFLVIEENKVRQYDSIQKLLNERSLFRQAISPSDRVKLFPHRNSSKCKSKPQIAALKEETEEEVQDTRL

On to `COc1ccc(C(C)(C)C)cc1CO[C@H]1[C@H](C(C)(C)C)[C@@H](C(=O)O)N(C(=O)OC(C)C)[C@H]1c1ccccc1` [Example 47, (2S,3R,4S,5S)-3-tert-butyl-4-[(5-tert-butyl-2-methoxyphenyl)methoxy]-5-phenyl-1-{[(propan-2-yl)oxy]carbonyl}pyrrolidine-2-carboxylic acid], for which the “Maximum % activity (with co-corrector)” value was “+++ (≥350)” and the “Maximum % activity (without co-corrector)” value is “+++ (≥200)”. The EC50 under setting [1] was 1000 to 10000 nM. In addition, the EC50 under setting [2] was 1000 to 10000 nM.

`COc1ccc(C(F)(F)F)cc1CO[C@H]1[C@H](C(C)(C)C)[C@@H](C(=O)O)N(C(=O)C2CCCCC2)[C@H]1c1ccccc1` [Example 19, (2S,3R,4S,5S)-3-tert-butyl-1-(cyclohexanecarbonyl)-4-{[2-methoxy-5-(trifluoromethyl)phenyl]methoxy}-5-phenylpyrrolidine-2-carboxylic acid]: the “Maximum % activity (with co-corrector)” value was “+++ (≥350)” and the “Maximum % activity (without co-corrector)” value is on record as “+++ (≥200)”. Besides, the EC50 under setting [1] is under 1000 nM. Moreover, the 50% effective concentration (EC50) under setting [2] was under 1000 nM.

For the molecule `COc1ncc(Cl)cc1OCCO[C@H]1[C@H](C(C)(C)C)[C@@H](C(=O)O)N(C(=O)[C@@H]2CCCCO2)[C@H]1c1ccccc1C` [Example 284, (2S,3R,4S,5S)-3-tert-butyl-4-{2-[(5-chloro-2-methoxypyridin-3-yl)oxy]ethoxy}-5-(2-methylphenyl)-1-[(2S)-oxane-2-carbonyl]pyrrolidine-2-carboxylic acid], the “Maximum % activity (with co-corrector)” value is recorded as “+++ (≥350)” and the “Maximum % activity (without co-corrector)” value is given as “+ (<100)”. For the same molecule, under setting [1], the EC50 lay in the range of 1000 to 10000 nM. For the same molecule, the concentration for a half-maximal effect (EC50) under setting [2] is 1000 to 10000 nM.

On to `COc1ncc(C2CCC2)cc1CO[C@H]1[C@H](C(C)(C)C)[C@@H](C(=O)O)N(C(=O)OC(C)C)[C@H]1c1ccccc1Br` [Example 138, (2S,3R,4S,5S)-5-(2-bromophenyl)-3-tert-butyl-4-[(5-cyclobutyl-2-methoxypyridin-3-yl)methoxy]-1-{[(propan-2-yl)oxy]carbonyl}pyrrolidine-2-carboxylic acid], for which the “Maximum % activity (with co-corrector)” value was “+++ (≥350)”; the “Maximum % activity (without co-corrector)” value was “++ (≥100 and <200)”. Under setting [1], the concentration giving a half-maximal response (EC50) is under 1000 nM. Besides, the EC50 under setting [2] is under 1000 nM.

Consider `COc1ncc(C(F)(F)F)cc1CO[C@H]1[C@H](C(C)(C)C)[C@@H](C(=O)O)N(C(=O)OC(C)C)[C@H]1c1ccccc1C1=CCOCC1` [Example 108, (2S,3R,4S,5S)-3-tert-butyl-5-[2-(3,6-dihydro-2H-pyran-4-yl)phenyl]-4-{[2-methoxy-5-(trifluoromethyl)pyridin-3-yl]methoxy}-1-{[(propan-2-yl)oxy]carbonyl}pyrrolidine-2-carboxylic acid], for which the “Maximum % activity (with co-corrector)” value was “+++ (≥350)”; the “Maximum % activity (without co-corrector)” value is “++ (≥100 and <200)”. Further, the EC50 under setting [1] is 1000 to 10000 nM. The EC50 under setting [2] lay in the range of 1000 to 10000 nM.

As to `COc1ncc(-c2ccc(F)cc2C)cc1CO[C@H]1[C@H](C(C)(C)C)[C@@H](C(=O)O)N(C(=O)OC(C)C)[C@H]1c1ccccc1` [Example 67, (2S,3R,4S,5S)-3-tert-butyl-4-{[5-(4-fluoro-2-methylphenyl)-2-methoxypyridin-3-yl]methoxy}-5-phenyl-1-{[(propan-2-yl)oxy]carbonyl}pyrrolidine-2-carboxylic acid], the “Maximum % activity (with co-corrector)” value is on record as “+++ (≥350)” and the “Maximum % activity (without co-corrector)” value is listed as “+ (<100)”. Besides, the EC50 under setting [1] was under 1000 nM. Further, under setting [2], the EC50 was under 1000 nM.

For `COc1ncc(C(F)(F)F)cc1CO[C@H]1[C@H](C(C)(C)C)[C@@H](C(=O)O)N(C(=O)[C@@H]2CCCO2)[C@H]1c1ccnn1C(C)C` [Example 127, (2S,3R,4S,5S)-3-tert-butyl-4-{[2-methoxy-5-(trifluoromethyl)pyridin-3-yl]methoxy}-1-[(2S)-oxolane-2-carbonyl]-5-[1-(propan-2-yl)-1H-pyrazol-5-yl]pyrrolidine-2-carboxylic acid], the “Maximum % activity (with co-corrector)” value is “+ (<150)” and the “Maximum % activity (without co-corrector)” value is “+ (<100)”. In addition, under setting [1], the 50% effective concentration (EC50) was over 10000 nM. Moreover, under setting [2], the EC50 was over 10000 nM.

As for `COc1ncc(C(F)(F)F)cc1CO[C@H]1[C@H](C(C)(C)C)[C@@H](C(=O)O)N(C(=O)[C@@H]2CCCCO2)[C@H]1c1cccc(Cl)c1` [Example 123, (2S,3R,4S,5S)-3-tert-butyl-5-(3-chlorophenyl)-4-{[2-methoxy-5-(trifluoromethyl)pyridin-3-yl]methoxy}-1-[(2S)-oxane-2-carbonyl]pyrrolidine-2-carboxylic acid], the “Maximum % activity (with co-corrector)” value was “+++ (≥350)”; the “Maximum % activity (without co-corrector)” value is “++ (≥100 and <200)”. Moreover, the EC50 under setting [1] lay in the range of 1000 to 10000 nM. The EC50 under setting [2] is under 1000 nM.

In the case of `COc1ncc(C(F)(F)F)cc1CO[C@H]1[C@H](C(C)(C)C)[C@@H](C(=O)O)N(C(=O)C2=CCCCO2)[C@H]1c1ccccc1C` [Example 222, (2S,3R,4S,5S)-3-tert-butyl-1-(3,4-dihydro-2H-pyran-6-carbonyl)-4-{[2-methoxy-5-(trifluoromethyl)pyridin-3-yl]methoxy}-5-(2-methylphenyl)pyrrolidine-2-carboxylic acid], the “Maximum % activity (with co-corrector)” value is on record as “+++ (≥350)” and the “Maximum % activity (without co-corrector)” value is reported as “+++ (≥200)”. Further, under setting [1], the EC50 lay in the range of 1000 to 10000 nM. Moreover, the EC50 under setting [2] is under 1000 nM.

With `COc1ncc(C(F)(F)F)cc1CO[C@H]1[C@H](C(C)(C)C)[C@@H](C(=O)O)N(C(=O)[C@@H]2CCCCO2)[C@H]1c1ccccc1-c1ccc(Cl)cc1` [Example 202, (2S,3R,4S,5S)-3-tert-butyl-5-(4′-chloro[1,1′-biphenyl]-2-yl)-4-{[2-methoxy-5-(trifluoromethyl)pyridin-3-yl]methoxy}-1-[(2S)-oxane-2-carbonyl]pyrrolidine-2-carboxylic acid], the “Maximum % activity (with co-corrector)” value is on record as “+++ (≥350)” and the “Maximum % activity (without co-corrector)” value is “+++ (≥200)”. Moreover, the EC50 under setting [1] lay in the range of 1000 to 10000 nM. For the same molecule, under setting [2], the EC50 lay within 1000 to 10000 nM.

On to `COc1ncc(C(F)(F)F)cc1CO[C@H]1[C@H](C(C)(C)C)[C@@H](C(=O)O)N(C(=O)OC(C)C)[C@H]1c1ccccc1OC(C)C` [Example 105, (2S,3R,4S,5S)-3-tert-butyl-4-{[2-methoxy-5-(trifluoromethyl)pyridin-3-yl]methoxy}-1-{[(propan-2-yl)oxy]carbonyl}-5-{2-[(propan-2-yl)oxy]phenyl}pyrrolidine-2-carboxylic acid], for which the “Maximum % activity (with co-corrector)” value is “+++ (≥350)”; the “Maximum % activity (without co-corrector)” value was “++ (≥100 and <200)”. Besides, the EC50 under setting [1] is under 1000 nM. Under setting [2], the EC50 is under 1000 nM.

Turning to `COc1ncc(C(C)(C)C)cc1CO[C@H]1[C@H](C(C)(C)C)[C@@H](C(=O)O)N(C(=O)C2CCCCC2)[C@H]1c1ccccc1` [Example 60, (2S,3R,4S,5S)-3-tert-butyl-4-[(5-tert-butyl-2-methoxypyridin-3-yl)methoxy]-1-(cyclohexanecarbonyl)-5-phenylpyrrolidine-2-carboxylic acid], the “Maximum % activity (with co-corrector)” value is “+++ (≥350)”; the “Maximum % activity (without co-corrector)” value is “++ (≥100 and <200)”. Besides, the EC50 under setting [1] is under 1000 nM. Moreover, the concentration for a half-maximal effect (EC50) under setting [2] is under 1000 nM.

Consider `COc1ccc(C(C)(C)C)cc1CO[C@H]1[C@H](C(C)(C)C)[C@@H](C(=O)O)N(C(=O)[C@@H]2CCCCO2)[C@H]1c1cccc2ccccc12` [Example 211, (2S,3R,4S,5S)-3-tert-butyl-4-[(5-tert-butyl-2-methoxyphenyl)methoxy]-5-(naphthalen-1-yl)-1-[(2S)-oxane-2-carbonyl]pyrrolidine-2-carboxylic acid], for which the “Maximum % activity (with co-corrector)” value is given as “+++ (≥350)” and the “Maximum % activity (without co-corrector)” value is on record as “+++ (≥200)”. Further, the EC50 under setting [1] fell in the range of 1000 to 10000 nM. For the same molecule, the EC50 under setting [2] was under 1000 nM.

As to `COc1nc2ccccc2cc1CO[C@H]1[C@H](C(C)(C)C)[C@@H](C(=O)O)N(C(=O)OC(C)C)[C@H]1c1ccccc1` [Example 106, (2S,3R,4S,5S)-3-tert-butyl-4-[(2-methoxyquinolin-3-yl)methoxy]-5-phenyl-1-{[(propan-2-yl)oxy]carbonyl}pyrrolidine-2-carboxylic acid], the “Maximum % activity (with co-corrector)” value is “++ (≥150 and <350)”; the “Maximum % activity (without co-corrector)” value was “+ (<100)”. Besides, under setting [1], the concentration for a half-maximal effect (EC50) was 1000 to 10000 nM. For the same molecule, the EC50 under setting [2] was 1000 to 10000 nM.

Regarding `COc1ncc(C(F)(F)F)cc1CO[C@H]1[C@H](C(C)(C)C)[C@@H](C(=O)O)N(C(=O)[C@@H]2CCCCO2)[C@H]1c1ccccc1C1CC1` [Example 128, (2S,3R,4S,5S)-3-tert-butyl-5-(2-cyclopropylphenyl)-4-{[2-methoxy-5-(trifluoromethyl)pyridin-3-yl]methoxy}-1-[(2S)-oxane-2-carbonyl]pyrrolidine-2-carboxylic acid], the “Maximum % activity (with co-corrector)” value was “+++ (≥350)”; the “Maximum % activity (without co-corrector)” value is “++ (≥100 and <200)”. Besides, under setting [1], the EC50 lay in the range of 1000 to 10000 nM. Further, the EC50 under setting [2] was under 1000 nM.
